Assay results from PMC9313475, “Green Tea Catechins, (−)‐Catechin Gallate, and (−)‐Gallocatechin Gallate are Potent Inhibitors of ABA‐Induced Stomatal Closure” (Advanced Science, 2022).

How the values were obtained:
KAT2 [1] = biological target: T1, KAT2 (Arabidopsis thaliana, UniProt Q38849); experiment: two-electrode voltage clamp in Xenopus oocytes expressing the channel, […]; type: cell-based
KAT1 = KAT1 (Arabidopsis thaliana, UniProt Q39128); experiment: as above; type: cell-based
GORK = biological target: T2, GORK (Arabidopsis thaliana, UniProt Q94A76); experiment: as above; type: cell-based
T2 sequence (Q94A76 1-820): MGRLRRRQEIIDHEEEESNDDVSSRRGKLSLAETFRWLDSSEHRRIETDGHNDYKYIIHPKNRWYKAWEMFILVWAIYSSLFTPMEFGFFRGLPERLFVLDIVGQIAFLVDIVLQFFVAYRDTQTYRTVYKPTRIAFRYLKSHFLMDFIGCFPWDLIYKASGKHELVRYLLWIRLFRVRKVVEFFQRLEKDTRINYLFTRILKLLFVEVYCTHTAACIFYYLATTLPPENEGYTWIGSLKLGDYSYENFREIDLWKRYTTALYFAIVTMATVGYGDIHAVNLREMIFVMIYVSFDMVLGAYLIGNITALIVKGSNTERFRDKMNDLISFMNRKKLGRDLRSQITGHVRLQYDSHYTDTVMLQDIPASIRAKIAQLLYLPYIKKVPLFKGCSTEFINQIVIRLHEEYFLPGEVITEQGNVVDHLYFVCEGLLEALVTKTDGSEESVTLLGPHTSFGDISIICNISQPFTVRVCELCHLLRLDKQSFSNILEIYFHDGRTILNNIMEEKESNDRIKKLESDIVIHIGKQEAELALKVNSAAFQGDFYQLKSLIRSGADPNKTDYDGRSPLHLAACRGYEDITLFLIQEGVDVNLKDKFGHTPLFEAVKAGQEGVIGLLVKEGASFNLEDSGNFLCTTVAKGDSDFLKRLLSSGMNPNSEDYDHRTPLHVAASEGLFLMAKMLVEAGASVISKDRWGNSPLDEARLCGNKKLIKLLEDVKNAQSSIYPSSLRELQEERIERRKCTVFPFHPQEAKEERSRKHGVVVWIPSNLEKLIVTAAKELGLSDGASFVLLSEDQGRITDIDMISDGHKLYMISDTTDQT

KAT2 [2] = biological target: T1, KAT2; experiment: cell-based; settings: read-out: % inhibition at 0.5 mM

T1 sequence (Q38849 whole entry): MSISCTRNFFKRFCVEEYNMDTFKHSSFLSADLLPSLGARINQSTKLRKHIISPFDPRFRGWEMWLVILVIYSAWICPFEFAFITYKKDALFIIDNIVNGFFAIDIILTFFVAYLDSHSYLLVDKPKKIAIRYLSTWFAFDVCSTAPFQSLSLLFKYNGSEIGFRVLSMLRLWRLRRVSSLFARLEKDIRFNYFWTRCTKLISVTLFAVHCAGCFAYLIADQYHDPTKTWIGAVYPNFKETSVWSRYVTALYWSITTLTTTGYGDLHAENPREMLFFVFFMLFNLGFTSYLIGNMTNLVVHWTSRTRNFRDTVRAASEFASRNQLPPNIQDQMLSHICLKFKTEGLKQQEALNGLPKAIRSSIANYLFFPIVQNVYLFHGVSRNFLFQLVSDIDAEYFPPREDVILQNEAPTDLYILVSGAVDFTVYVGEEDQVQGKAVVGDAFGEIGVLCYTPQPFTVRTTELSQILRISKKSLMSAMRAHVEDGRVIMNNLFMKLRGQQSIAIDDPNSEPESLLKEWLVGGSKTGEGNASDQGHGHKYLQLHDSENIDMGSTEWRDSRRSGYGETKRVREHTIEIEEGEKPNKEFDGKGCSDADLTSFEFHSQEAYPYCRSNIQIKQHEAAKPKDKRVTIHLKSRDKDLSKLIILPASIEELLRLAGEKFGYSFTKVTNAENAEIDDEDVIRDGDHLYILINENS
KAT1, sequence (Q39128 whole entry): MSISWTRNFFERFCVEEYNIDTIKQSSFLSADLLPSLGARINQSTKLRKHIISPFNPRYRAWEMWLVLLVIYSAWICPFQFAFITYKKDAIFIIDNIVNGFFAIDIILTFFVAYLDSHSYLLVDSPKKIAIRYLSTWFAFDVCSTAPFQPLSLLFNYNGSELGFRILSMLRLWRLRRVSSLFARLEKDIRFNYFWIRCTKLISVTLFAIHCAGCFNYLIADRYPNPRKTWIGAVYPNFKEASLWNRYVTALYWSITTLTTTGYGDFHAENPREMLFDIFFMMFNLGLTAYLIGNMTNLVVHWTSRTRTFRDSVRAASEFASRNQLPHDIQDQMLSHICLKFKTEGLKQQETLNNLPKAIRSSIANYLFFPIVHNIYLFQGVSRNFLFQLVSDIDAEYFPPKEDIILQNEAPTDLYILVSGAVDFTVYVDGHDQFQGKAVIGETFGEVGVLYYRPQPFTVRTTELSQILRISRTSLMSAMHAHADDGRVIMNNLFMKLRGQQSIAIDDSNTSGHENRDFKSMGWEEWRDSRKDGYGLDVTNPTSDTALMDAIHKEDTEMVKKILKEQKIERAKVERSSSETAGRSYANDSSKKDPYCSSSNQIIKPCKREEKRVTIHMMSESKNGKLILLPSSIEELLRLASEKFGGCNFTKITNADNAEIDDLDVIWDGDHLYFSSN

| SMILES | two-electrode voltage clamp in Xenopus oocytes expressing the channel, 500 μM (KAT2 [1]) | two-electrode voltage clamp in Xenopus oocytes expressing the channel, 500 μM (KAT1) | two-electrode voltage clamp in Xenopus oocytes expressing the channel, 500 μM (GORK) | inhibition at 500 µM (KAT2 [2]) |
| --- | --- | --- | --- | --- |
| O=C(O[C@@H]1Cc2c(O)cc(O)cc2O[C@H]1c1cc(O)c(O)c(O)c1)c1cc(O)c(O)c(O)c1 [GCG, (−)-gallocatechin gallate] | Both CG and GCG inhibited KAT1 and KAT2 (Figure 3A,B). | Both CG and GCG inhibited KAT1 and KAT2 (Figure 3A,B). | GORK was strongly inhibited by CG and GCG, whereas AKT1 and AKT2 were less sensitive to CG and GCG. | – |
| O=C(O[C@@H]1Cc2c(O)cc(O)cc2O[C@H]1c1ccc(O)c(O)c1)c1cc(O)c(O)c(O)c1 [CG, (−)-catechin gallate] | Both CG and GCG inhibited KAT1 and KAT2 (Figure 3A,B). | Both CG and GCG inhibited KAT1 and KAT2 (Figure 3A,B). | GORK was strongly inhibited by CG and GCG, whereas AKT1 and AKT2 were less sensitive to CG and GCG. | – |
| CC[N+](CC)(CC)CC [TEA, tetraethylammonium] | – | – | – | 14% |
